Measurements published in paper PMC12930396, “Positive modulators of N-methyl-D-aspartate receptor: structure–activity relationship study on steroidal C-17 and C-20 oxime ethers” (RSC Advances, 2026).
“Also recorded” adds a separate entry of the source.

Assays:
GluN1/GluN2B receptors [1] = settings: cited from earlier work; for EC50: read-out: EC50, potentiation of GluN1/GluN2B receptor responses
in vitro [2] = settings: pH 7.4; for half-life at 10 µM: rat, microsomes; for Metabolic stability in rat liver microsomes: 1 h, 10 µM
Method: The reactions were terminated by the addition of four volumes of ice-cold methanol, mixed vigorously, and left at −20 °C for 1h. After that, the samples were centrifuged and the supernatants were analysed by means of ECHO-MS® System (Sciex, Framingham, MA, USA). Zero time points were prepared by adding ice-cold methanol to the mixture of the compound with cofactors before the addition of microsomes. […] Intrinsic clearance (CLint) was calculated using the following formula: [drawing 4] where V is the incubation volume per milligram of microsomal protein (µL mg^−1) and t1/2 is the microsomal half-life.

GluN1/GluN2B receptors [3] = target: T1, GluN1/GluN2B receptors (Rattus norvegicus, UniProt P35439+Q00960); assay: Patch-clamp: modulation of glutamate-induced currents of recombinant GluN1/GluN2B receptors expressed in HEK293 cells; type: cell-based; settings: for h ± SEM (apparent Hill coefficient): concentration-response fit; for h ± SEM (apparent Hill coefficient) / EC50 / Emax: mean ± SEM; for EC50: half-maximal potentiation of currents evoked by 1 µM glutamate; for EC50 / Emax / inhibition at 3 µM: HEK293; for Emax: maximal potentiation of currents evoked by 1 µM glutamate and 30 µM glycine; for Modulatory profile at NMDARs: GluN1/GluN2B in HEK293; for inhibition at 3 µM: at 3 µM compound, read-out: NAM effect (degree of inhibition); for inhibition at 3 µM / PAM effect (degree of potentiation): 1 µM glutamate
T1 construct: expressed in transfected cells; host or cells: HEK293 cells (ATCC No. CRL-1573)
Method: To investigate the effect of compounds 11–23 on the activity of NMDARs, electrophysiological measurements were performed on HEK293 cells that were co-transfected with cDNAs containing genes encoding for the rat GluN1-1a and GluN2B subunits. The degree of modulation (E; potentiation/inhibition) for the newly synthesized compounds was determined using the following formula: [drawing 1] where Ie is the value of the current amplitude during glutamate and compound coapplication, and Ia is the current amplitude value for glutamate application. […] The results are presented as mean ± standard error of the mean (SEM), with n equal to the number of independent measurements. One-way analysis of variance (ANOVA) was used for multiple comparisons (unless otherwise stated, a value of P ≤ 0.05 was used for the determination of significance).
We have evaluated the relationship between oxime derivatives 11–23 and their modulatory effect on recombinant GluN1/GluN2B receptors. Due to the […] effect of neurosteroid-based PAMs at NMDARs[20,44]
HEK293 cells (American Type Culture Collection, ATCC No. CRL-1573, Rockville, MD, USA) were cultured in Opti-MEM I (Invitrogen, Carlsbad, CA, USA) supplemented with 5% fetal bovine serum (FBS; PAN Biotech, Aidenbach, Germany) at 37 °C in 5% CO2. 24 h before transfection, HEK293 cells were plated in 24-well plates at a density of 2 × 10^5 cells per well. The next day, the cells were transfected with cDNA encoding rat GluN1-1a (GluN1; GenBank accession number U08261)[56] and GluN2B (GenBank accession number M91562)[57] subunits (in the pCI-neo expression vector), along with green fluorescent protein (GFP; in the pQBI 25 vector, Takara, Tokyo, Japan). Briefly, equal amounts (200 ng) of cDNAs encoding GluN1-1a, GluN2B, and GFP were mixed with 0.6 µl of Matra-A reagent (IBA, Gottingen, Germany) in 50 µL of Opti-MEM I and added to confluent HEK293 cells cultured in 24-well plates. After trypsinization, the cells were resuspended in Opti-MEM I containing 1% FBS, supplemented with 20 mM MgCl2, 1 mM D,L-2-amino-5-phosphonovaleric acid, 3 mM kynurenic acid, and 1 µM ketamine, and plated on 30 mm glass coverslips coated with collagen and poly-L-lysine. Transfected cells were identified by GFP epifluorescence. Electrophysiology experiments were performed 24–48 h after transfection.
Whole-cell current recordings, voltage-clamped at a holding potential of −60 mV, were performed at room temperature using a patch-clamp amplifier (Axopatch 200B; Molecular Devices, Sunnyvale, CA, USA) after capacitance and series resistance (<10 MΩ) compensation (80–90%). NMDAR current responses were low-pass filtered at 2 kHz, digitally sampled at 5 kHz, and analysed using pClamp software (version 10.6; Molecular Devices). Patch pipettes (3–5 MΩ), pulled from borosilicate glass, were filled with an intracellular solution (ICS) containing (in mM): 15 CsCl, 10 BAPTA, 3 MgCl2, 1 CaCl2, 120 gluconic acid, 10 HEPES, and 2 ATP-Mg salt (pH adjusted to 7.2 with CsOH). The extracellular solution (ECS) contained (in mM): 160 NaCl, 2.5 KCl, 0.2 EDTA, 10 glucose, 10 HEPES, and 0.7 CaCl2 (pH adjusted to 7.3 with NaOH). NMDAR responses were induced by 1 µM glutamate and 30 µM glycine. 1% DMSO was present in all control and testing solutions. Solution applications were performed using a microprocessor-controlled multibarrel fast-perfusion system with a solution exchange rate around the cells of ∼10 ms.[58]

in vitro [4] = settings: pH 7.4; for PAMPA permeability Retention (mass retention): 5 h, 100 µM; for Papp at 5 h, 100 µM: PAMPA
Method: Permeability was quantified using permeability coefficients (Pe) and mass retention, the latter representing the proportion of compound retained in the membrane.
Permeation experiments were conducted in polystyrene 96-well filter plates with PVDF membrane pre-coated with structured layers of phospholipids (Corning Gentest™) according to the manufacturer's instructions. Briefly, the plate was warmed to room temperature, and meanwhile, the solutions of the compounds were diluted from 10 mM DMSO stocks to TRIS–HCl buffer pH 7.4 to reach a 100 µM final concentration. The DMSO concentration in the samples was 1%. Then, 300 µL of these solutions were transferred into the donor (receiver) plate wells, and 200 µL of the (TRIS) buffer was added to the acceptor (filter) plate wells. The filter plate and receiver plate were assembled and incubated for 5 h on an orbital shaker (300 rpm). After this, the concentration of the tested substances in both the donor and acceptor compartments was determined with use of LC/MS. Liquid chromatography was performed using an ExionLC AD pump and autosampler from Sciex (Framingham, MA, USA). […] The mobile phase flow rate was 300 µL min^−1. The column Synergi Fusion-RP from Phenomenex (Torrance, CA, USA) was used and was kept at 40 °C during the analysis.

T1 sequence (Q00960 27-1482, other chains not shown): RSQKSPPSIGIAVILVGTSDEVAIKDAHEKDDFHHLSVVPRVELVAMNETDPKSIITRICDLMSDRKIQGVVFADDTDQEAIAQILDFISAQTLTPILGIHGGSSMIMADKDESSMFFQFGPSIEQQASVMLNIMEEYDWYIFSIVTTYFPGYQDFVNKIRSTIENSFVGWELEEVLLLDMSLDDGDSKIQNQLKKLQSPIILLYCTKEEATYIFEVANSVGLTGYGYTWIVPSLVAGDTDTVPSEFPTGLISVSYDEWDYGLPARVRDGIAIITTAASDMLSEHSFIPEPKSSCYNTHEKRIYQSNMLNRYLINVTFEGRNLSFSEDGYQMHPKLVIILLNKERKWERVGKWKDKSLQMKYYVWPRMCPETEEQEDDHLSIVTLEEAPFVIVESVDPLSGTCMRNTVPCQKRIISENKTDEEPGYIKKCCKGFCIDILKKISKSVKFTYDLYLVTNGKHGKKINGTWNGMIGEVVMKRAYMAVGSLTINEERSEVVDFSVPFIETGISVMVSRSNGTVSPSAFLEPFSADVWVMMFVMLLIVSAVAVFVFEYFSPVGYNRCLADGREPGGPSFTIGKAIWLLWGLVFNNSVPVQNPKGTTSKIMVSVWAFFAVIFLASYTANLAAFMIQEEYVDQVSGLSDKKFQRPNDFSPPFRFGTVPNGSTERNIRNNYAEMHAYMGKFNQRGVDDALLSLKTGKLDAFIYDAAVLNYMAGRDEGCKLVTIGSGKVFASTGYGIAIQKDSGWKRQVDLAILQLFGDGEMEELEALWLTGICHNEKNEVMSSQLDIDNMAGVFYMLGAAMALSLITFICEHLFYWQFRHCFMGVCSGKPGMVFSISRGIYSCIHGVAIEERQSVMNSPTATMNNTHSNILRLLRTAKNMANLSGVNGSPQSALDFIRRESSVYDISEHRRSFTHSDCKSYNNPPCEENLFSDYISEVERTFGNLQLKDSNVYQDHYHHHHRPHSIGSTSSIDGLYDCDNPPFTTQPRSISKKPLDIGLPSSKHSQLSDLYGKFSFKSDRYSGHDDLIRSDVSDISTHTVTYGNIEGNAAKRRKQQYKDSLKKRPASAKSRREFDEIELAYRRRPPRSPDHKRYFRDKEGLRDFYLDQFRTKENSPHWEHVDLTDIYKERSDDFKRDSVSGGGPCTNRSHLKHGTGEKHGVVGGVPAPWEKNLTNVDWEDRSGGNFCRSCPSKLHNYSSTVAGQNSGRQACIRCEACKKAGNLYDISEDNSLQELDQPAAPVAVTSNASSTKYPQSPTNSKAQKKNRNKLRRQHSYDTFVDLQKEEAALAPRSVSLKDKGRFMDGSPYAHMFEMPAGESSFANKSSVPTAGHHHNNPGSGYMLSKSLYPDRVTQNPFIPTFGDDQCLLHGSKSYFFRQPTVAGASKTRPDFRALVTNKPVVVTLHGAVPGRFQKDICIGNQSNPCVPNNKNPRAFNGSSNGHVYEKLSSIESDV

C[C@]12CC[C@H](OC(=O)CCCCCCC(=O)O)CC1=CCC1C2CC[C@]2(C)C(=O)CCC12 (stereo partly drawn) [Compound 8]
Emax, potentiation of GluN1/GluN2B receptor responses (GluN1/GluN2B receptors [1]): 189% | EC50 (GluN1/GluN2B receptors [1]): 49 µM

CO/N=C(\C)[C@H]1CCC2C3CC=C4C[C@@H](OC(=O)CCCC(=O)O)CC[C@]4(C)C3CC[C@@]21C (stereo partly drawn) [Compound 17, 20-Oxo-pregn-5-en-3β-yl hemiglutarate O-methyloxime]
half-life at 10 µM (in vitro [2]): > 1 h | Potency relative to PES (GluN1/GluN2B receptors [3]; EC50 compared with PES): over 3.5 fold | h ± SEM (apparent Hill coefficient) (GluN1/GluN2B receptors [3]): 1.6 ± 0.1 | EC50 (GluN1/GluN2B receptors [3]): 6.1 ± 0.7 µM | Emax (GluN1/GluN2B receptors [3]): 503 ± 85% | PAMPA permeability Retention (mass retention) (in vitro [4]): 95% | Papp at 5 h, 100 µM (in vitro [4]): 5.5 ×10⁻⁶ cm/s

CCCO/N=C(\C)[C@H]1CCC2C3CC=C4C[C@@H](OC(=O)CCCC(=O)O)CC[C@]4(C)C3CC[C@@]21C (stereo partly drawn) [Compound 18, 20-Oxo-pregn-5-en-3β-yl hemiglutarate O-propyloxime]
half-life at 10 µM (in vitro [2]): > 1 h | Modulatory profile at NMDARs (GluN1/GluN2B receptors [3]): not identified as PAMs; also recorded: complex, concentration-dependent activity profile | inhibition at 3 µM (GluN1/GluN2B receptors [3]): 7% | PAM effect (degree of potentiation) (GluN1/GluN2B receptors [3]; at 10 µM compound): 75 ± 21% | PAM effect (degree of potentiation) (GluN1/GluN2B receptors [3]; at 30 µM compound): 108 ± 17% | PAMPA permeability Retention (mass retention) (in vitro [4]): 100%

C[C@]12CC[C@H](OC(=O)CCCCCCCCC(=O)O)CC1=CCC1C2CC[C@]2(C)C(=O)CCC12 (stereo partly drawn) [Compound 10]
Emax, potentiation of GluN1/GluN2B receptor responses (GluN1/GluN2B receptors [1]): 165% | EC50 (GluN1/GluN2B receptors [1]): 16 µM

C/C(=N\OC(C)C)[C@H]1CCC2C3CC=C4C[C@@H](OC(=O)CCCC(=O)O)CC[C@]4(C)C3CC[C@@]21C (stereo partly drawn) [Compound 19, 20-Oxo-pregn-5-en-3β-yl hemiglutarate O-isopropyloxime]
Metabolic stability in rat liver microsomes (in vitro [2]): no detectable metabolism after 60 min | half-life at 10 µM (in vitro [2]): > 1 h | Modulatory profile at NMDARs (GluN1/GluN2B receptors [3]): not identified as PAMs; also recorded: complex, concentration-dependent activity profile | inhibition at 3 µM (GluN1/GluN2B receptors [3]): 27% | PAM effect (degree of potentiation) (GluN1/GluN2B receptors [3]; at 10 µM compound): 81 ± 20% | PAM effect (degree of potentiation) (GluN1/GluN2B receptors [3]; at 30 µM compound): 169 ± 55% | PAMPA permeability Retention (mass retention) (in vitro [4]): 99%

C[C@]12CC[C@H](OC(=O)CCCCCCCC(=O)O)CC1=CCC1C2CC[C@]2(C)C(=O)CCC12 (stereo partly drawn) [Compound 9]
Emax, potentiation of GluN1/GluN2B receptor responses (GluN1/GluN2B receptors [1]): 226% | EC50 (GluN1/GluN2B receptors [1]): 32 µM

C[C@]12CC[C@H](OC(=O)CCCC(=O)O)CC1=CCC1C2CC[C@]2(C)C(=O)CCC12 (stereo partly drawn) [Compound 5]
Emax, potentiation of GluN1/GluN2B receptor responses (GluN1/GluN2B receptors [1]): 154% | EC50 (GluN1/GluN2B receptors [1]): 151 µM

CC[C@@H](C)[C@H]1CCC2C3CC[C@@H]4C[C@H](OS(=O)(=O)O)CC[C@]4(C)C3CC[C@@]21C (stereo partly drawn) [Compound 1]
IC50 (GluN1/GluN2B receptors [1]; read-out: IC50, inhibition of currents of GluN1/GluN2B receptors): 0.09 µM

C/C(=N\OCCN1CCOCC1)[C@H]1CCC2C3CC=C4C[C@@H](OC(=O)CCCC(=O)O)CC[C@]4(C)C3CC[C@@]21C (stereo partly drawn) [Compound 13, 20-Oxo-pregn-5-en-3β-yl hemiglutarate O-(3-morpholinoethyl)oxime]
half-life at 10 µM (in vitro [2]): > 1 h | h ± SEM (apparent Hill coefficient) (GluN1/GluN2B receptors [3]): 2.8 ± 0.2 | EC50 (GluN1/GluN2B receptors [3]): 34.7 ± 4.2 µM | Emax (GluN1/GluN2B receptors [3]): 111 ± 11% | PAMPA permeability Retention (mass retention) (in vitro [4]): 95%

C/C(=N\OCc1ccccc1)[C@H]1CCC2C3CC=C4C[C@@H](OC(=O)CCCC(=O)O)CC[C@]4(C)C3CC[C@@]21C (stereo partly drawn) [Compound 21, 20-Oxo-pregn-5-en-3β-yl hemiglutarate O-(phenylmethyl)oxime]
Metabolic stability in rat liver microsomes (in vitro [2]): no detectable metabolism after 60 min | half-life at 10 µM (in vitro [2]): > 1 h | h ± SEM (apparent Hill coefficient) (GluN1/GluN2B receptors [3]): 1.7 ± 0.3 | EC50 (GluN1/GluN2B receptors [3]): 11.3 ± 2 µM | Emax (GluN1/GluN2B receptors [3]): 403 ± 56% | PAMPA permeability Retention (mass retention) (in vitro [4]): 95% | Papp at 5 h, 100 µM (in vitro [4]): 1.82 ×10⁻⁶ cm/s

C[C@@]12CCCC1C1CC[C@@H]3C[C@H](OC(=O)CCC(=O)O)CC[C@]3(C)C1CC2 (stereo partly drawn) [Compound 2]
Emax, potentiation of GluN1/GluN2B receptor responses (GluN1/GluN2B receptors [1]): 452% | EC50 (GluN1/GluN2B receptors [1]): 7.4 µM

C=CCO/N=C(\C)[C@H]1CCC2C3CC=C4C[C@@H](OC(=O)CCCC(=O)O)CC[C@]4(C)C3CC[C@@]21C (stereo partly drawn) [Compound 20, 20-Oxo-pregn-5-en-3β-yl hemiglutarate O-(2-propenyl)oxime]
Metabolic stability in rat liver microsomes (in vitro [2]): no detectable metabolism after 60 min | half-life at 10 µM (in vitro [2]): > 1 h | h ± SEM (apparent Hill coefficient) (GluN1/GluN2B receptors [3]): 2.0 ± 0.2 | EC50 (GluN1/GluN2B receptors [3]): 12.6 ± 2.9 µM | Emax (GluN1/GluN2B receptors [3]): 317 ± 43% | PAMPA permeability Retention (mass retention) (in vitro [4]): 99% | Papp at 5 h, 100 µM (in vitro [4]): 7.24 ×10⁻⁶ cm/s

C[C@]12CC[C@H](OC(=O)CCCCC(=O)O)CC1=CCC1C2CC[C@]2(C)C(=O)CCC12 (stereo partly drawn) [Compound 6]
Emax, potentiation of GluN1/GluN2B receptor responses (GluN1/GluN2B receptors [1]): 180% | EC50 (GluN1/GluN2B receptors [1]): 108 µM

C[C@]12CC[C@H](OC(=O)CCCCCC(=O)O)CC1=CCC1C2CC[C@]2(C)C(=O)CCC12 (stereo partly drawn) [Compound 7]
Emax, potentiation of GluN1/GluN2B receptor responses (GluN1/GluN2B receptors [1]): 187% | EC50 (GluN1/GluN2B receptors [1]): 82 µM
